Experimental data from PubChem BioAssay (NCI).
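Protocol summary: plate cells (96-well), add compound at 5 concentrations, incubate 48 h, interpolate endpoints linearly. The concentration for 50% growth inhibition is given as GI50. Definition used: TGI = concentration required for complete inhibition of growth.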

Columns and labels:
Assay in all cases: NCI tumour cell line growth inhibition, 48 h; in the data active = GI50 below about 0.43 µM; inactive = the rest
[1] = test system: MDA-MB-231 breast
[2] = test system: SNB-75 CNS
[3] = test system: HCC-2998 colon
[4] = test system: HL-60(TB) leukemia
[5] = test system: HCT-116 colon
[6] = test system: 786-0 renal
[7] = test system: NCI-H460 lung
[8] = test system: COLO 205 colon
[9] = test system: TK-10 renal
[10] = test system: HT29 colon
[11] = test system: SN12C renal
[12] = test system: MOLT-4 leukemia
[13] = test system: NCI/ADR-RES ovarian
[14] = test system: A549 NSCLC
[15] = test system: OVCAR-8 ovarian
[16] = test system: IGROV1 ovarian
[17] = test system: SF-539 CNS
[18] = test system: HOP-92 NSCLC
[19] = test system: CCRF-CEM leukemia
[20] = test system: OVCAR-5 ovarian
[21] = test system: SK-MEL-2 melanoma
[22] = test system: HS 578T breast
[23] = test system: DU-145 prostate
[24] = test system: NCI-H522 lung
[25] = test system: UO-31 renal
[26] = test system: HCT-15 colon
[27] = test system: BT-549 breast
[28] = test system: SF-268 CNS
[29] = test system: MCF7 breast
[30] = test system: U251 CNS
[31] = test system: SW-620 colon
[32] = test system: SK-OV-3 ovarian
[33] = test system: OVCAR-3 ovarian
[34] = test system: A498 renal
[35] = test system: M14 melanoma
[36] = test system: MDA-MB-435
[37] = test system: KM12 colon
[38] = test system: SK-MEL-5 melanoma
[39] = test system: PC-3 prostate
[40] = test system: NCI-H23 lung
[41] = test system: NCI-H226 lung
[42] = test system: UACC-62 melanoma
[43] = test system: RXF 393 renal
[44] = test system: RPMI-8226 leukemia
[45] = test system: ACHN renal
[46] = test system: LOX IMVI melanoma
[47] = test system: OVCAR-4 ovarian
[48] = test system: CAKI-1 renal
[49] = test system: UACC-257 melanoma
[50] = test system: T-47D breast
[51] = test system: SK-MEL-28 melanoma
[52] = test system: SR leukemia
[53] = test system: SF-295 CNS
[54] = test system: SNB-19 CNS
[55] = test system: K-562 leukemia
[56] = test system: MALME-3M melanoma
[57] = test system: HOP-62 NSCLC

C[C@H](O)CNc1cc(-c2[nH]c3cccnc3c2-c2ccc(F)cc2)ccn1
> 22.9 µM: TGI [18]
> 21.8 µM: TGI [16]
> 25 µM: TGI [1] | TGI [2] | TGI [3] | TGI [4] | TGI [5] | TGI [6] | TGI [7] | TGI [8] | TGI [9] | TGI [10] | TGI [11] | TGI [12] | TGI [13] | TGI [14] | TGI [15] | TGI [17] | TGI [19] | TGI [20] | TGI [21] | TGI [22] | TGI [23] | TGI [24] | TGI [25] | TGI [26] | TGI [27] | TGI [28] | TGI [29] | TGI [30] | TGI [31] | TGI [32] | TGI [33] | TGI [34] | TGI [35] | TGI [36] | TGI [37] | TGI [38] | TGI [39] | TGI [40] | TGI [41] | TGI [42] | TGI [43] | TGI [44] | TGI [45] | TGI [46] | TGI [47] | TGI [48] | TGI [49] | TGI [50] | TGI [51] | TGI [52] | TGI [53] | TGI [54] | TGI [55] | TGI [56] | TGI [57]
inactive: GI50 [1] 24.1 µM | GI50 [2] 11.8 µM | GI50 [3] > 23.3 µM | GI50 [4] > 25 µM | GI50 [5] 13.2 µM | GI50 [6] 16.2 µM | GI50 [7] 8.43 µM | GI50 [8] 13.5 µM | GI50 [9] 10.3 µM | GI50 [10] 10.1 µM | GI50 [11] 11.9 µM | GI50 [12] > 25 µM | GI50 [13] > 25 µM | GI50 [14] 13.4 µM | GI50 [15] > 20.2 µM | GI50 [16] 6.35 µM | GI50 [17] > 25 µM | GI50 [18] 1.59 µM | GI50 [19] 20.1 µM | GI50 [20] > 25 µM | GI50 [21] > 25 µM | GI50 [22] 15.8 µM | GI50 [23] 18.7 µM | GI50 [24] > 25 µM | GI50 [25] 4.08 µM | GI50 [26] 10.3 µM | GI50 [27] 17.8 µM | GI50 [28] 17.3 µM | GI50 [29] 6.37 µM | GI50 [30] > 18.5 µM | GI50 [31] > 25 µM | GI50 [32] 13.1 µM | GI50 [33] 22.2 µM | GI50 [34] 4.19 µM | GI50 [35] > 25 µM | GI50 [36] > 23 µM | GI50 [37] 22.1 µM | GI50 [38] 10.3 µM | GI50 [39] > 23 µM | GI50 [40] > 25 µM | GI50 [41] 12.9 µM | GI50 [42] 12.3 µM | GI50 [43] 14.6 µM | GI50 [44] > 17.1 µM | GI50 [45] 4.66 µM | GI50 [46] 12.5 µM | GI50 [47] > 25 µM | GI50 [48] 9.06 µM | GI50 [49] > 25 µM | GI50 [50] 8.88 µM | GI50 [51] > 25 µM | GI50 [52] 13.3 µM | GI50 [53] > 12.4 µM | GI50 [54] 18.5 µM | GI50 [55] > 23 µM | GI50 [56] > 14.4 µM | GI50 [57] 20.1 µM
